In paper PMC3368506 (Journal of the American Chemical Society, 2012):
Where two headings read alike, the source gives them in different places.

Columns and labels:
Neuro2A (N2A) cells = test: Cytotoxicity, Alamar Blue cell viability assay; type: cell-based, Mouse
Cu^2+–Aβ42 species = Cu^2+–Aβ42 species (Homo sapiens, UniProt P05067); test: H2O2 production, HRP/Amplex Red assay; type: biochemical; settings: reducing conditions (sodium ascorbate)
[1] = 1:1 metal:ligand, 50 μM each, ref [78], cited from earlier work
[2] = pH 7.4; 1:1 metal:ligand, 50 μM each; ref [78]; cited from earlier work

Chain of Cu^2+–Aβ42 species (P05067 672-713 limits assumed): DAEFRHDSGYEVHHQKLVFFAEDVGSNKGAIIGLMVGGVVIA

Oc1c(I)cc(Cl)c2cccnc12 [CQ, clioquinol]
Cell survival, disaggregation conditions (Neuro2A (N2A) cells; Aβ42 fibrils 20 μM + compound 2 μM + Cu^2+ 20 μM): marked cell toxicity | Cell survival (Neuro2A (N2A) cells; concentrations >2 μM): < 30% | Reduction of H2O2 production by Cu–Aβ42 species (Cu^2+–Aβ42 species): almost no effect

O=C(O)CN(CCN(CC(=O)O)CC(=O)O)CCN(CC(=O)O)CC(=O)O [DTPA, diethylenetriaminepentaacetic acid]
pCu (−log[Cu^2+]free) ([1]; pH 6.6): 9.7 | pCu (−log[Cu^2+]free) ([1]; pH 7.4): 10.7 | pZn (−log[Zn^2+]free) [2]: 9.3

O=C(O)CN(CCN(CC(=O)O)CC(=O)O)CC(=O)O [EDTA, ethylenediaminetetraacetic acid]
Cell survival (Neuro2A (N2A) cells; up to 20 μM concentration): 90–95%

CN(Cc1ccccn1)Cc1ccccn1 [L*, N-methyl-N,N-bis(2-pyridylmethyl)amine]
Reduction of H2O2 production by Cu–Aβ42 species (Cu^2+–Aβ42 species): dramatic reduction

c1cnc2c(c1)ccc1cccnc12 [phen, phenanthroline]
Reduction of H2O2 production by Cu–Aβ42 species (Cu^2+–Aβ42 species): almost no effect
